Read-outs that look alike come from different tables or passages of the source.
Assays:
human RORγ = molecular target: T1, human RORγ (Homo sapiens, UniProt P51449); assay: Luciferase reporter gene assay of inhibitory effect against RORγ transcriptional activity (GAL4-hRORγ plasmid in CHO cells); assay type: cell-based
T1 construct: human, NM_005060.3 and from Ser253 to Lys518; expressed in transfected cells; host or cells: CHO cells (transient co-transfection with pG5-Luc reporter)
T1 sequence (P51449 253-518): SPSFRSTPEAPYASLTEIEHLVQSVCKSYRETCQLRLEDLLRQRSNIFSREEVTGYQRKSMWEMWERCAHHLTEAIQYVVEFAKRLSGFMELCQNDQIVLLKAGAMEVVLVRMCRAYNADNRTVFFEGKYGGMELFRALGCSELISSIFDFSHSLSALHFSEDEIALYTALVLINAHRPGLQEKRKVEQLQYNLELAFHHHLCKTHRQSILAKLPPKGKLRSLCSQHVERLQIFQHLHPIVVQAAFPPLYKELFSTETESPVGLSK

mouse RORγ = molecular target: T2, mouse RORγ (Mus musculus, UniProt P51450); assay: Luciferase reporter gene assay of inhibitory effect against RORγ transcriptional activity (GAL4-mRORγ plasmid in CHO cells); assay type: cell-based
T2 construct: mouse, NM_011281.2 and from Ile251 to Lys516; expressed in transfected cells; host or cells: CHO cells (transient co-transfection with pG5-Luc reporter)
T2 sequence (P51450 251-516): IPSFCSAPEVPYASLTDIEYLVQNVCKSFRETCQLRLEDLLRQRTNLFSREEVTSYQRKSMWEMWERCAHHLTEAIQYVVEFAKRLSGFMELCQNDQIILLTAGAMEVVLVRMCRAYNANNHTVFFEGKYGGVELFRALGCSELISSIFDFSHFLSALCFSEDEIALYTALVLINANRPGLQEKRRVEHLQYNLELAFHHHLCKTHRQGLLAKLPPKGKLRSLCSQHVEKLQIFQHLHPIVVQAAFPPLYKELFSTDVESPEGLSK
Procedure, shortened: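 CHO cells transiently co-transfected with GAL4-mouse RORγ LBD (Ile251–Lys516) and GAL4-dependent luciferase reporter; eight compound concentrations, 0.1% DMSO, 2 days at 37 °C. Luminescence as %-of-vehicle control; EC50 by curve fit, cytotoxic concentrations excluded.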

| SMILES | EC50 (human RORγ; read-out: LUC EC50 hRORg) [µM] | EC50 (mouse RORγ; read-out: LUC EC50 mRORg) [µM] | EC50 (human RORγ; read-out: LUC EC50 (μM) hRORg) [µM] | EC50 (mouse RORγ; read-out: LUC EC50 (μM) mRORg) [µM] |
| --- | --- | --- | --- | --- |
| Cc1cnc(NC(=O)C[C@H](CCC(=O)O)c2noc([C@H]3C[C@@H](CC(C)(C)C)C3)c2C2CC2)c(C)c1 [Example F-681] | < 3 | < 3 |  |  |
| CCn1c(CCC2CCCCC2)nnc1[C@H]1CCCC[C@@H]1C(=O)Nc1cccc2ccccc12 (racemic) [Example F-35] |  |  | < 3 | < 3 |
| Cc1c(Cl)cccc1NC(=O)CCc1nnc(CCCC(C)C)n1C1CC1 [Example F-120] |  |  | < 3 | < 3 |
| Cc1noc(NC(=O)C[C@H](CCC(=O)O)c2noc([C@H]3C[C@@H](CC(C)(C)C)C3)c2C2CC2)c1C [Example F-679] | < 3 | < 3 |  |  |
| Cc1ccc(NCc2nnc(CCC(=O)Nc3cccc(Cl)c3C)n2C2CC2)c(C)c1 [Example F-206] |  |  | < 3 | < 3 |
| Cc1ccc(NC(=O)C[C@H](CCCO)c2noc(-c3cc(CC(C)C)[nH]n3)c2C2CC2)c(F)c1 [Example F-702] | < 3 | < 3 |  |  |
| CC(C)(C)C[C@H]1C[C@@H](c2onc([C@@H](CCC(=O)O)CC(=O)NS(=O)(=O)C3CC3)c2C2CC2)C1 [Example F-722] | > 3 | > 3 |  |  |
| Cc1cnccc1NC(=O)CCc1nnc(CCC(C)C)n1C1CC1 [Example F-89] |  |  | > 3 | > 3 |
| Cc1c(Cl)cccc1NC(=O)CCc1nnc(CNC(=O)C(C)C)n1C1CC1 [Example F-221] |  |  | > 3 | > 3 |
| Cc1ccc(NC(=O)C[C@H](CCO)c2nnc([C@H]3C[C@@H](CC(C)(C)C)C3)n2C2CC2)c(C)c1 [Example F-561] | < 3 | < 3 |  |  |
| CC(C)(C)C(F)(F)c1cc(-c2onc([C@@H](CCC(=O)O)CC(=O)Nc3ccc(Cl)cc3F)c2C(F)F)no1 [Example E-62, Sodium (S)-5-(4-chloro-2-fluoro-phenylcarbamoyl)-4-[5-(1,1-difluoro-2,2-dimethylpropyl)-4′-difluoromethyl-[3,5′]biisoxazolyl-3′-yl]-pentanoate] |  |  | < 3 | < 3 |
| Cc1cccc(NC(=O)CCc2nnc(CCC(C)C)n2C2CC2)c1C [Example F-78] |  |  | > 3 | < 3 |
| COCC(=O)NC[C@@H](CC(=O)Nc1ccc(C)cc1C)c1nnc([C@H]2C[C@@H](CC(C)C)C2)n1C1CC1 [Example F-487] |  |  | < 3 | < 3 |
| Cc1cc(F)ccc1NC(=O)[C@H]1CC(F)(F)C[C@@H]1c1nnc(-c2cc(CC(C)C)on2)n1C1CC1 [Example F-592] | < 3 | < 3 |  |  |
| Cc1ccc(NC(=O)CC(c2nnc([C@H]3C[C@@H](CC(C)C)C3)n2C2CC2)C2CN(C)C2)c(C)c1 (mixture of isomers) [Example F-469] |  |  | > 3 | > 3 |
| Cc1c(Cl)cccc1NC(=O)CCc1nnc(CCC2CCCNC2)n1C1CC1 (racemic) [Example F-189] |  |  | > 3 | > 3 |
| Cc1c(NC(=O)CCc2nnc(CCC(C)C)n2C2CC2)cccc1C(F)(F)F [Example F-99] |  |  | > 3 | < 3 |
| Cc1ccc(NC(=O)CC(CC(=O)N2CC[C@@H](O)C2)c2nnc([C@H]3C[C@@H](CC(C)C)C3)n2C2CC2)c(C)c1 (mixture of isomers) [Example F-502] | > 3 | > 3 |  |  |
| COc1cc(C)ccc1CNC(=O)CCc1nnc(CCC2(C)CCCCC2)n1C1CC1 [Example F-270] |  |  | < 3 | < 3 |
| CC(C)CCc1nnc(CCC(=O)Nc2ccccc2Cl)n1C1CC1 [Example F-93] |  |  | > 3 | > 3 |
| COc1cc(NC(=O)C[C@H](CCO)c2nnc([C@H]3C[C@@H](CC(C)C)C3)n2C2CC2)ccc1Cl [Example F-520] | < 3 | < 3 |  |  |
| CC(=O)N1C[C@H](C(=O)Nc2ccc(C)cc2C)[C@@H](c2nnc(CCCC(C)C)n2C2CC2)C1 (racemic) [Example F-220] |  |  | < 3 | < 3 |
| CC(=O)N1C[C@H](C(=O)Nc2ccc(C)cc2C)[C@@H](c2nnc([C@H]3C[C@@H](OC(C)C)C3)n2C2CC2)C1 (racemic) [Example F-330] |  |  | > 3 | > 3 |
| COc1cc(C)ccc1CNC(=O)CCc1noc(C23CC4CC(CC(C4)C2)C3)c1C1CC1 [Example F-735] | < 3 | < 3 |  |  |
| Cc1ccc(NC(=O)C[C@H](CCC(=O)O)c2noc([C@H]3C[C@@H](CC(C)(C)C)C3)c2C2CC2)nc1C [Example F-680] | < 3 | < 3 |  |  |

| SMILES | EC50 (human RORγ; read-out: LUC EC50 hRORg) [µM] | EC50 (mouse RORγ; read-out: LUC EC50 mRORg) [µM] | EC50 (human RORγ; read-out: LUC EC50 (μM) hRORg) [µM] | EC50 (mouse RORγ; read-out: LUC EC50 (μM) mRORg) [µM] |
| --- | --- | --- | --- | --- |
| CCC(C)(C)CCc1nnc([C@H]2CN(C(C)=O)C[C@@H]2C(=O)Nc2ccc(C)cc2C)n1C1CC1 (racemic) [Example F-299] |  |  | < 3 | < 3 |
| Cc1ccc(NC(=O)CCc2nnc(-c3ccc(OC(C)C)cc3)n2C2CC2)c(C)c1 [Example F-441] |  |  | > 3 | < 3 |
| CC(C)(C)C[C@H]1C[C@@H](c2onc([C@@H](CCC(=O)O)CC(=O)NC34CC(C3)C4)c2C2CC2)C1 [Example F-712] | > 3 | > 3 |  |  |
| Cc1ccc(NC(=O)CCc2nnc(-c3cc(CC(C)C)on3)n2C2CC2)c(C)c1 [Example F-405] |  |  | < 3 | < 3 |
| CCn1c(CCC(=O)Nc2cccc(Cl)c2C)nnc1CCC1CCCC1 [Example F-54] |  |  | < 3 | < 3 |
| Cc1ccc(NC(=O)[C@H]2CC(=O)N(C)[C@@H]2c2nnc(CCCC(C)(C)C)n2C2CC2)c(C)c1 [Example F-388] |  |  | < 3 | < 3 |
| CNC(=O)CO[C@@H](CC(=O)Nc1ccc(C)cc1C)c1nnc([C@H]2C[C@@H](CC(C)C)C2)n1C1CC1 [Example F-480] |  |  | < 3 | < 3 |
| CC(C)(C)C(F)(F)c1cc(-c2onc([C@@H](CCC(=O)O)CC(=O)Nc3ccc(Cl)cc3F)c2C2CC2)no1 [Example E-49, Sodium (S)-5-(4-chloro-2-fluoro-phenylcarbamoyl)-4-[4′-cyclopropyl-5-(1,1-difluoro-2,2-dimethylpropyl)-[3,5′]biisoxazolyl-3′-yl]-pentanoate] |  |  | < 3 | < 3 |
| Cc1ccc(NC(=O)C[C@H](CCC(=O)O)n2nnc([C@H]3C[C@@H](CC(C)(C)C)C3)c2C2CC2)c(F)c1 [Example F-703] | < 3 | < 3 |  |  |
| Cc1ccc(NC(=O)[C@H]2CN(C(=O)N(C)C)C[C@@H]2c2nnc(CCCC(C)(C)C)n2C2CC2)c(C)c1 (racemic) [Example F-447] |  |  | < 3 | < 3 |
| Cc1ccc(NC(=O)CCc2nnc(CCCC(C)C)n2C2CC2)c(C)c1 [Example F-215] |  |  | < 3 | < 3 |
| Cc1ccc(NC(=O)C[C@H](CCC(=O)O)c2nnn([C@H]3C[C@@H](CC(C)(C)C(C)C)C3)c2C2CC2)c(Cl)c1 [Example F-713] | < 3 | < 3 |  |  |
| CCn1c(CCC(=O)Nc2cccc3ccccc23)nnc1CCC(C)C [Example F-19] |  |  | > 3 | < 3 |
| CC(=O)N1CC[C@H](c2nnc(CCCC(C)(C)C)n2C2CC2)[C@@H](C(=O)Nc2ccc(C)cc2C)C1 (racemic) [Example F-435] |  |  | < 3 | < 3 |
| Cc1ccc(NC(=O)C[C@H](CCC(=O)O)c2noc(-c3cc(CCC(C)C)on3)c2C(F)(F)F)c(Cl)c1 [Example E-16] |  |  | < 3 | < 3 |
| Cc1ccc(NC(=O)C[C@H](CCC(=O)O)c2noc(-c3cc(CCC(C)(C)C)on3)c2C2CC2)c(Cl)c1 [Example E-22] |  |  | < 3 | < 3 |
| CC(=O)N1C[C@H](C(=O)Nc2ccc(C)cc2C)[C@@H](c2nnc(CCC(C)(C)C)n2C2CC2)C1 (racemic) [Example F-223] |  |  | < 3 | < 3 |
| Cc1c(NC(=O)CCc2nnc(CCC(C)C)n2C2CC2)ccc(Cl)c1Cl [Example F-165] |  |  | > 3 | < 3 |
| CC(C)C[C@H]1C[C@@H](c2nnc([C@@H](CCO)CC(=O)Nc3ccc(F)cc3Cl)n2C2CC2)C1 [Example F-513] | < 3 | < 3 |  |  |
| Cc1ccc(NC(=O)C[C@H](OCc2ccccc2)c2nnc([C@H]3C[C@@H](CC(C)C)C3)n2C2CC2)c(C)c1 [Example F-581] | < 3 | < 3 |  |  |
| COCC(C)(C)C[C@H]1C[C@@H](c2onc([C@@H](CCC(=O)O)CC(=O)Nc3ccc(CO)cc3Cl)c2C2CC2)C1 [Example F-724] | < 3 | < 3 |  |  |
| Cc1ccc(NC(=O)CCc2noc(C3(CO)CC(CC(C)(C)C)C3)c2C2CC2)c(Cl)c1 (mixture of isomers) [Example F-730] | < 3 | < 3 |  |  |
| Cc1c(F)ccc(NC(=O)C[C@H](CCO)c2nnc(-c3cc(CC(C)C)on3)n2C2CC2)c1C [Example F-661] | < 3 | < 3 |  |  |
| CCn1c(CCC(=O)NCc2ccccc2C)nnc1CCC1CCCCC1 [Example F-41] |  |  | < 3 | < 3 |

From patent US20160137639A1, “TRIAZOLE-ISOXAZOLE COMPOUND AND MEDICAL USE THEREOF” (JAPAN TOBACCO INC., priority 2012, published 2016)
